Tested on: Genes belonging to other category
Experiment: DNA chip mRNA expression in yeast, genes belonging to other category (Table 9)
Type: cell-based, Saccharomyces cerevisiae S288C
Procedure: Yeast (Saccharomyces cerevisiae S288C (α SUC2mal mel gap2 CUP1)) were incubated at 25° C. on YPD medium (yeast extract 1%, polypepton 2%, glucose 2%). One of toxic chemical substances was added to the cells at logarithmic growth phase, and the cells were further incubated for two hours. Cells were cultured without any chemical substance in the same condition, and were used as control. Concentrations of the chemical substances were defined to inhibit the growth of the yeast but not lead to death.
After completion of the incubation, the culture was centrifuged to collect the cells. To the cells, sodium acetate buffer (50 mM sodium acetate, 10 mM EDTA, 1% SDS) was added, and the mixture was shaken at 65° C. for five minutes, followed by returning to room temperature, and obtaining the supernatant, of which the procedures were repeated two times. To the supernatant, ½ amount of a solution of phenol/chloroform was added, and the mixture was centrifuged to give a supernatant, which was added with an equal amount of chloroform, and the mixture was centrifuged to give a supernatant. To the supernatant, an equal amount of isopropanol containing 0.3 M sodium acetate was added, and the mixture was allowed to stand at room temperature for 30 minutes, after which the mixture was centrifuged to give a sediment of the whole RNAs. Seventy % ethanol was added to the sediment, and the mixture was again centrifuged to give a sediment, which was then dried and dissolved in water. mRNA was isolated from the whole RNAs as followings. In view of the fact that a poly A chain is attached to the 3′ terminus of mRNA, a polynucleotide having a poly T structure which was immobilized on the surface of latex beads was used to trap the mRNA, and then the mRNA was washed and eluted with spine column (Oligotex-dT30<Super>mRNA Purification Kit, Takara). Reverse transcription of the mRNA was conducted with a reverse transcriptase (Super Script II Reverse Transcriptase; catalogue No. 18064-014, GibcoBRL) using fluorescence-labeled nucleotides to give cDNAs that were introduced with Cy3-dUTP or Cy5-dUTP during the reverse transcription.
The labeled cDNAs were dissolved in TE buffer (10mM Tris-HCl/1 mM EDTA, pH8.0), and the solution was dropped on the DNA chip containing the whole genes of yeast (DNA Chip Research Inc. Japan) so that the cDNAs were hybridized on the DNA chip at 65° C. for over 12 hours. The fluoresces intensity of the DNA chip was read with a scanner, and the ratio relative to the fluorescence intensity resulting from the absence of chemical substance was estimated as the following, which is shown in Tables 1 to 9: […]

C=CC=O [(14), acrolein]
The level of expressed mRNA in the presence of chemical substance/The level of expressed mRNA in the absence of chemical substance (yeast gene YIR024C): 2.6
The level of expressed mRNA in the presence of chemical substance/The level of expressed mRNA in the absence of chemical substance (yeast gene YIR039C): 1.9
The level of expressed mRNA in the presence of chemical substance/The level of expressed mRNA in the absence of chemical substance (yeast gene YJL030W): 2.1
The level of expressed mRNA in the presence of chemical substance/The level of expressed mRNA in the absence of chemical substance (yeast gene YJL035C): 1.6
The level of expressed mRNA in the presence of chemical substance/The level of expressed mRNA in the absence of chemical substance (yeast gene YJL053W): 1.3
The level of expressed mRNA in the presence of chemical substance/The level of expressed mRNA in the absence of chemical substance (yeast gene YJL073W): 1.1
The level of expressed mRNA in the presence of chemical substance/The level of expressed mRNA in the absence of chemical substance (yeast gene YJL089W): 1.8
The level of expressed mRNA in the presence of chemical substance/The level of expressed mRNA in the absence of chemical substance (yeast gene YJL116C): 2.6
The level of expressed mRNA in the presence of chemical substance/The level of expressed mRNA in the absence of chemical substance (yeast gene YJL146W): 1.5
The level of expressed mRNA in the presence of chemical substance/The level of expressed mRNA in the absence of chemical substance (yeast gene YJL164C): 0.9
The level of expressed mRNA in the presence of chemical substance/The level of expressed mRNA in the absence of chemical substance (yeast gene YJL210W): 0.9
The level of expressed mRNA in the presence of chemical substance/The level of expressed mRNA in the absence of chemical substance (yeast gene YJR004C): 0.7
The level of expressed mRNA in the presence of chemical substance/The level of expressed mRNA in the absence of chemical substance (yeast gene YJR086W): 2.2
The level of expressed mRNA in the presence of chemical substance/The level of expressed mRNA in the absence of chemical substance (yeast gene YJR099W): 2.1
The level of expressed mRNA in the presence of chemical substance/The level of expressed mRNA in the absence of chemical substance (yeast gene YKL008C): 0.8
The level of expressed mRNA in the presence of chemical substance/The level of expressed mRNA in the absence of chemical substance (yeast gene YKL013C): 1.4
The level of expressed mRNA in the presence of chemical substance/The level of expressed mRNA in the absence of chemical substance (yeast gene YKL039W): 0.8
The level of expressed mRNA in the presence of chemical substance/The level of expressed mRNA in the absence of chemical substance (yeast gene YKL041W): 1.3
The level of expressed mRNA in the presence of chemical substance/The level of expressed mRNA in the absence of chemical substance (yeast gene YKL070W): 2.2
The level of expressed mRNA in the presence of chemical substance/The level of expressed mRNA in the absence of chemical substance (yeast gene YKL096W): 0.5
The level of expressed mRNA in the presence of chemical substance/The level of expressed mRNA in the absence of chemical substance (yeast gene YKL103C): 2.0
The level of expressed mRNA in the presence of chemical substance/The level of expressed mRNA in the absence of chemical substance (yeast gene YKL117W): 1.6
The level of expressed mRNA in the presence of chemical substance/The level of expressed mRNA in the absence of chemical substance (yeast gene YKL139W): 1.0
The level of expressed mRNA in the presence of chemical substance/The level of expressed mRNA in the absence of chemical substance (yeast gene YKL165C): 0.8
The level of expressed mRNA in the presence of chemical substance/The level of expressed mRNA in the absence of chemical substance (yeast gene YKL193C): 1.2
The level of expressed mRNA in the presence of chemical substance/The level of expressed mRNA in the absence of chemical substance (yeast gene YKL196C): 2.5
The level of expressed mRNA in the presence of chemical substance/The level of expressed mRNA in the absence of chemical substance (yeast gene YKR014C): 1.8
The level of expressed mRNA in the presence of chemical substance/The level of expressed mRNA in the absence of chemical substance (yeast gene YKR098C): 1.4
The level of expressed mRNA in the presence of chemical substance/The level of expressed mRNA in the absence of chemical substance (yeast gene YLR093C): 1.3
The level of expressed mRNA in the presence of chemical substance/The level of expressed mRNA in the absence of chemical substance (yeast gene YLR107W): 1.6
The level of expressed mRNA in the presence of chemical substance/The level of expressed mRNA in the absence of chemical substance (yeast gene YLR118C): 1.5
The level of expressed mRNA in the presence of chemical substance/The level of expressed mRNA in the absence of chemical substance (yeast gene YLR120C): 0.8
The level of expressed mRNA in the presence of chemical substance/The level of expressed mRNA in the absence of chemical substance (yeast gene YLR136C): 0.7
The level of expressed mRNA in the presence of chemical substance/The level of expressed mRNA in the absence of chemical substance (yeast gene YLR178C): 2.8
The level of expressed mRNA in the presence of chemical substance/The level of expressed mRNA in the absence of chemical substance (yeast gene YLR250W): 2.5
The level of expressed mRNA in the presence of chemical substance/The level of expressed mRNA in the absence of chemical substance (yeast gene YLR251W): 1.3
The level of expressed mRNA in the presence of chemical substance/The level of expressed mRNA in the absence of chemical substance (yeast gene YLR266C): 1.0
The level of expressed mRNA in the presence of chemical substance/The level of expressed mRNA in the absence of chemical substance (yeast gene YLR327C): 1.5
The level of expressed mRNA in the presence of chemical substance/The level of expressed mRNA in the absence of chemical substance (yeast gene YLR356W): 2.2
The level of expressed mRNA in the presence of chemical substance/The level of expressed mRNA in the absence of chemical substance (yeast gene YLR362W): 1.2
The level of expressed mRNA in the presence of chemical substance/The level of expressed mRNA in the absence of chemical substance (yeast gene YLR391W): 0.5
The level of expressed mRNA in the presence of chemical substance/The level of expressed mRNA in the absence of chemical substance (yeast gene YLR429W): 0.7
The level of expressed mRNA in the presence of chemical substance/The level of expressed mRNA in the absence of chemical substance (yeast gene YML092C): 1.6
The level of expressed mRNA in the presence of chemical substance/The level of expressed mRNA in the absence of chemical substance (yeast gene YMR004W): 2.2
The level of expressed mRNA in the presence of chemical substance/The level of expressed mRNA in the absence of chemical substance (yeast gene YMR027W): 0.9
The level of expressed mRNA in the presence of chemical substance/The level of expressed mRNA in the absence of chemical substance (yeast gene YMR091C): 1.5
The level of expressed mRNA in the presence of chemical substance/The level of expressed mRNA in the absence of chemical substance (yeast gene YMR094W): 2.8

Reference: patent US8192962B2, “Processes for detecting toxic substances” (Daikin Industries, Ltd., priority 2001, dated 2012)
